Key:
[1] = test system: caspase 8 in HCT116 lysates; assay: Caspase 8 activity (caspase glo 8) of cell lysates / IP inputs; format: cell-based, Homo sapiens; conditions: for average fold change relative to empty: HCT116, rep 1, average of 4 dilutions; for norm RLUs: normalized by lysate quant
Method: Cells harvested from a 6-well plate were resuspended in 100 μl of lysis buffer (30 mM HEPES pH 7.2, 150 mM NaCl, 1% Triton X-100) and lysed via needle shearing (25G, 10 passes) followed by a 30 min incubation on ice. Supernatant was collected after centrifuging at 1000xg for 5 min. For the caspase activity assay, 10 μl of supernatant diluted with lysis buffer (1:25, 1:50, 1:100 to stay within linear range of luminescence measurements) was incubated with 10 μl of the luminogenic caspase glo 8 substrate (Promega #PRG8200) in a 384-white walled plate (Corning 3574) for 45 min at RT before measuring luminescence on a Spectramax-M5 plate reader.

[2] = test system: DR5; assay: GFP immunoprecipitation: DR5 (FADD, caspase 8) recovered with GFP-tagged protein, Western blot; format: cell-based, Homo sapiens; conditions: for fraction of DR5 IP'ed: GFP IP
Method: 15 cm dishes were seeded with 4 million HCT116 cells and allowed to recover for 18 hr prior to transfection. Samples were then transfected for 24 hr with the GFP-tagged ER trafficked protein, cytosolic GFP, or empty vector. To harvest apoptotic and living cells for each sample, all media and washes were collected. Cells were scraped in 2 ml of cold PBS and combined with the media and washes. Samples were centrifuged to pellet cells, washed with 1 ml cold PBS, and flash frozen in liquid N2 prior to lysis.
The cell pellets were resuspended in 750 μl of 30 mM HEPES pH 7.2, 150 mM NaCl, 1% Triton X-100 with 1x Roche protease inhibitor cocktail (if used subsequently for caspase glo 8 assay) or with 5x Roche protease inhibitor cocktail (if used for immunoblotting). The cells were lysed by mechanical shearing through a 25G needle for 13–15 plunges followed by incubation on ice for 30 min. The lysate was centrifuged at 2000xg for 5 min to remove debris and then incubated with 30 μl of GFP-Trap magnetic agarose beads (Chromotek gtma-20) for 4 hr at 4°C. The beads were then washed with 750 μl of lysis buffer for 10 min at 4°C for three rounds.
For Western blots, samples were eluted by adding 35 μl of non-reducing SDS gel loading buffer (50 mM Tris-HCl (pH 6.8), 2% SDS, 0.1% bromophenol blue, 10% glycerol) and incubated for 10 min at 70°C. The beads were then magnetically removed from the eluted sample before adding DTT to a final concentration of 25 mM. The entire sample was loaded onto the gel and immunoblotted for DR5, caspase 8, and GFP, in that order.

[3] = test system: HCT116 cells; assay: Annexin V (and SytoxBlue) flow cytometry for apoptosis; format: cell-based, Homo sapiens
Method: Cells seeded in a 6-well plate were transfected with the specified plasmid for 24 hr and harvested via trypsinization in complete media to allow a 30 min recovery at 37°C. The samples were then centrifuged at 500xg for 5 min and resuspended In 150 μl of a 1:20 dilution of Annexin V-AlexaFluor 647 conjugate (Thermo Scientific #A23204). Samples were transferred to a 96-well U-bottom plate and incubated in the dark for 15 min at RT. The distribution of apoptotic cells was determined by flow cytometry on a BD LSR II.

[4] = test system: GFP (340+341); assay: qPCR of GFP transcript (expression of GFP-tagged construct); format: cell-based; conditions: Rep 2; for avg. fold induction GFP (340+341) / fold induction GFP (340+341): vs 24 hr cytoGFP (empty traffo)

Substance: RHO-GFP: GFP-tagged rhodopsin expressed from plasmid
- average fold change relative to empty ([1]; siDR5): 1.375 fold change
- average fold change relative to empty ([1]; siNT): 3.026 fold change
- fold change in caspase 8 activity relative to GFP ([1]; input lysates GFP vs INS vs RHO, Rep1): 3.178 fold
- fold change in caspase 8 activity relative to GFP ([1]; input lysates GFP vs INS vs RHO, Rep2): 3.026 fold
- avg fold change in caspase 8 activity relative to GFP ([1]; input lysates GFP vs INS vs RHO, average of Rep1 and Rep2): 3.102 fold
- Mean ± SEM (lysate inputs) ([1]; lysate inputs, relative to GFP, n=2): 3.102 ± 0.07579, n=2
- average fold change relative to GFP ([1]; rep 2, average of 3 dilutions): 3.178 fold change
- norm RLUs ([1]; rep 2, dilution 0.025): 2013.77 RLUs
- norm RLUs ([1]; rep 2, dilution 0.05): 4641.15 RLUs
- norm RLUs ([1]; rep 2, dilution 0.1): 10576.5 RLUs
- 95% confidence interval of difference (lysate inputs) ([1]; vs. GFP): 1.776 to 2.428
- Difference between means (lysate inputs) ([1]; vs. GFP): 2.102 ± 0.07579
- fraction of DR5 IP'ed ([2]; sheet 2018-04-13 rep 2): 0.05356
- fraction of DR5 IP'ed ([2]; sheet 2018-09-20 rep 1): 0.05459
- fraction IP'ed ([2]; Rep 1 (second series)): 0.05356
- fraction IP'ed ([2]; Rep 2 (second series)): 0.05459
- % IP'ed ([2]; average of all replicates): 5.408%
- fraction IP'ed, average ([2]; average of all replicates): 0.05408
- Mean ± SEM (fraction IP'ed) ([2]; unpaired t test sheet, GFP n=5, MPZ n=3, INS n=2, RHO n=2): 0.05408 ± 0.0005162, n=2
- 95% confidence interval (difference between means) ([2]; vs. GFP, fraction IP'ed): 0.01226 to 0.07547
- Difference between means ([2]; vs. GFP, fraction IP'ed, ± SEM): 0.04386 ± 0.01229
- PARP cleavage and annexin V staining ([3]; HCT116, transfected 24 hr, Nt or DR5 siRNA): induced PARP cleavage and annexin V staining in a DR5-dependent manner
- Mean ± SEM (siDR5), Annexin V ([3]; siDR5, N=3): 19 ± 0.033 N=3
- 95% confidence interval of difference, Annexin V ([3]; siDR5 vs. siNt): -22 to -5.1
- Difference between means, Annexin V ([3]; siDR5 vs. siNt): -13 ± 3.0
- Mean ± SEM (siNt), Annexin V ([3]; siNt, N=3): 33 ± 3.0 N=3
- 2^-(deltaCq) GFP (340+341) ([4]; 3 hr, replicate 1): 0.5385
- Cq GFP (340+341) ([4]; 3 hr, replicate 1): 20.6309
- Cq(sample) - avg Cq(GAPDH), GFP (340+341) ([4]; 3 hr, replicate 1): 0.893
- 2^-(deltaCq) GFP (340+341) ([4]; 3 hr, replicate 2): 0.6201
- Cq GFP (340+341) ([4]; 3 hr, replicate 2): 20.4274
- Cq(sample) - avg Cq(GAPDH), GFP (340+341) ([4]; 3 hr, replicate 2): 0.6895
- 2^-(deltaCq) GFP (340+341) ([4]; 3 hr, replicate 3): 0.5059
- Cq GFP (340+341) ([4]; 3 hr, replicate 3): 20.721
- Cq(sample) - avg Cq(GAPDH), GFP (340+341) ([4]; 3 hr, replicate 3): 0.9831
- avg. fold induction GFP (340+341) ([4]; 3 hr, mean of 3 replicates): 0.02018
- fold induction GFP (340+341) ([4]; 3 hr, replicate 1): 0.01959
- fold induction GFP (340+341) ([4]; 3 hr, replicate 2): 0.02256
- fold induction GFP (340+341) ([4]; 3 hr, replicate 3): 0.0184
- 2^-(deltaCq) GFP (340+341) ([4]; 7 hr, replicate 1): 2.306
- Cq GFP (340+341) ([4]; 7 hr, replicate 1): 18.4525
- Cq(sample) - avg Cq(GAPDH), GFP (340+341) ([4]; 7 hr, replicate 1): -1.205
- 2^-(deltaCq) GFP (340+341) ([4]; 7 hr, replicate 2): 2.483
- Cq GFP (340+341) ([4]; 7 hr, replicate 2): 18.3457
- Cq(sample) - avg Cq(GAPDH), GFP (340+341) ([4]; 7 hr, replicate 2): -1.312
- 2^-(deltaCq) GFP (340+341) ([4]; 7 hr, replicate 3): 2.811
- Cq GFP (340+341) ([4]; 7 hr, replicate 3): 18.1671
- Cq(sample) - avg Cq(GAPDH), GFP (340+341) ([4]; 7 hr, replicate 3): -1.4909
- avg. fold induction GFP (340+341) ([4]; 7 hr, mean of 3 replicates): 0.09215
- fold induction GFP (340+341) ([4]; 7 hr, replicate 1): 0.08389
- fold induction GFP (340+341) ([4]; 7 hr, replicate 2): 0.09033
- fold induction GFP (340+341) ([4]; 7 hr, replicate 3): 0.1022
- avg. 2^-(deltaCq) GFP (340+341) ([4]; 24 hr, mean of 3 replicates): 71.8905
- 2^-(deltaCq) GFP (340+341) ([4]; 24 hr, replicate 1): 62.5314
- Cq GFP (340+341) ([4]; 24 hr, replicate 1): 13.0515
- Cq(sample) - avg Cq(GAPDH), GFP (340+341) ([4]; 24 hr, replicate 1): -5.967
- 2^-(deltaCq) GFP (340+341) ([4]; 24 hr, replicate 2): 61.8163
- Cq GFP (340+341) ([4]; 24 hr, replicate 2): 13.0681
- Cq(sample) - avg Cq(GAPDH), GFP (340+341) ([4]; 24 hr, replicate 2): -5.95
- 2^-(deltaCq) GFP (340+341) ([4]; 24 hr, replicate 3): 91.3236
- Cq GFP (340+341) ([4]; 24 hr, replicate 3): 12.5051
- Cq(sample) - avg Cq(GAPDH), GFP (340+341) ([4]; 24 hr, replicate 3): -6.513
- avg. fold induction GFP (340+341) ([4]; 24 hr, mean of 3 replicates): 2.615
- fold induction GFP (340+341) ([4]; 24 hr, replicate 1): 2.275
- fold induction GFP (340+341) ([4]; 24 hr, replicate 2): 2.2486
- fold induction GFP (340+341) ([4]; 24 hr, replicate 3): 3.322
